The values below come from article PMC6274259, “New 3-Cyano-2-Substituted Pyridines Induce Apoptosis in MCF 7 Breast Cancer Cells” (Molecules, 2016).

Structures are written as SMILES. A value given as a limit tells only on which side of the number the result lay.

Data set [1] relates to SK-OV-3 human ovarian carcinoma cell line. The experiment in a line: WST-1 cell viability assay, SK-OV-3. Type of data set: cell-based. Particulars: Homo sapiens, SK-OV-3; WST-1, 24 h treatment, mean ± S.D of three independent experiments. From the text: (§1) The synthesized compounds were screened for their cytotoxicity on five cancer cell lines, namely SK-OV-3, MCF-7, MDA-MB-231, HCT-116 and RKO, using a WST colorimetric assay. The assay principle is based upon the reduction of the tetrazolium salt WST-1 to formazan by cellular mitochondrial dehydrogenases present in viable cells. […] Among the latter compounds the benzohydrazide derivative 9a emerged with the lowest IC50 in this study against MCF-7 cells compared to 5-FU. […] Based on the fact that 9a had less cytotoxic effects on normal breast epithelial cells it was subjected to further studies.
(§2) The following cell lines were used for the screening stage, obtained from the American Type Culture Collection (ATCC, Manassas, VA, USA); SK-OV-3 (HTB-77), MCF-12A (ATCC CRL-10782), MDA-MB-231 (ATCC HTB-26), HCT-116 (CCL-247), RKO (CRL-2577) and sub-culturing of the above cell lines was conducted in 75 cm^2 flasks. The old culture media was removed and discarded after assessing the confluency of the cells and the cells were rinsed with 2–3 mL diluted trypsin (1×) (trypsin/EDTA solution consists of 0.025% trypsin and 0.01% EDTA in PBS), for about 5 minutes for complete detachment. The cells were observed under the inverted microscope until the cell layer is completely dispersed. 75 cm^2 flasks were prepared and 16 mL of DMEM media for SK-OV-3, MCF-7, MDA-MB-231, (DMEM 4500 mg glucose) and RPMI media for HCT-116 were added to each flask. The cells were aspirated gently and added to the flasks. DMEM 4500 mg/L high glucose with 10% FBS, 5% streptomycin and penicillin, RPMI 1640 (prepared by adding 5% heat-inactivated FCS and 2 mm glutamine) were used. DMEM was also used for MCF-12A cells with the addition of human epidermal growth factor 20 ng/mL, insulin 0.01 mg/mL and hydrocortisone 500 ng/mL.
(§3) The synthesized compounds were screened for their anti-proliferative activity using 5-FU (F6627-1G, Sigma-Aldrich, St. Louis, MO, USA) as reference compound. A concentration of 0.4% DMSO was used in all experiment after ensuring 100% viability of the cell lines with this concentration. A 25 mM stock concentration of all compounds was prepared for further studies and analysis.
(§4) Cells were trypsinized and placed in a 15 mL Falcon tube, the cells were centrifuged for 3 min at 1000 rpm. Trypsin is decanted using a sterile pipette and then the pellet is loosened by flicking the tube few times then 5–10 mL warm DMEM or RPMI were added to the Falcon tube and the pellet is resuspended. Cell count was done next by taking 10 μL of the suspension into the cell counting slide and read under 10× cells/mL. A cell stock of 50,000 cells/mL was prepared for the 96 wells. Cells (100 μL) were added to each well using a sterile pipette each time to ensure consistency. The experiment was planned ahead of time using excel sheet, 3–6 wells were reserved as blank media while 3–6 wells for vehicle (DMSO). The plate was incubated for 24 h for compound treatment step. DMEM media was used to prepare different dilutions of the compounds. The old DMEM media was removed from the wells using sterile pipette in the hood and the media was replaced with 100 μL media with each compound. The plate was incubated for 24 h. After 24 h incubation, WST-1 reagent (Sigma) was added to each well and then the plate was incubated for 1 h before measuring the absorbance using VICTOR™ Multilabel Plate Reader (Perkin Elmer, Beaconsfield, UK). The absorbance of the colored solution can be quantified by measuring at a certain wavelength (usually between 500–600 nm), in this experiment the first reading was conducted at 540 nm and the second reading at 690 nm for the reference wavelength. The percentage of cell viability was determined as the ratio of the absorbance of the sample vs the control. Three independent experiments were performed. […] 5-Florouracil (Sigma-Aldrich, F6627-1G) was used as reference standard.

In data set [2] the test system is MCF-7 human breast adenocarcinoma cell line. The experiment in a line: WST-1 cell viability assay, MCF-7. Type of data set: cell-based. Particulars: Homo sapiens, MCF7, 24 h, WST-1, 24 h treatment, mean ± S.D of three independent experiments.
Text: as §1, §2, §3, §4
(In general: Tetrazolium dyes change colour on reduction, which living cells bring about.)

Data set [3] deals with MDA-MB-231 human breast adenocarcinoma cell line. The experiment in a line: WST-1 cell viability assay, MDA-MB-231. The class given is cell-based. The conditions noted are these: Homo sapiens, MDA-MB-231; WST-1, 24 h treatment, mean ± S.D of three independent experiments.
Text: as §1, §2, §3, §4

The test system of data set [4] is HCT-116 human colon carcinoma cell line. The experiment in a line: WST-1 cell viability assay, HCT-116. The class given is cell-based. Particulars: Homo sapiens, HCT-116; WST-1, 24 h treatment, mean ± S.D of three independent experiments.
Text: as §1, §2, §3, §4

The subject of data set [5] is RKO human colon carcinoma cell line. The experiment in a line: WST-1 cell viability assay, RKO. The class given is cell-based. The conditions noted are these: Homo sapiens, Colon carcinoma cell; WST-1, 24 h treatment, mean ± S.D of three independent experiments.
Text: as §1, §2, §3, §4

`COc1ccc(-c2cc(-c3ccc(OC)c(OC)c3)c(C#N)c(OCC(=O)NNC(=S)SC)n2)cc1OC` [Compound 7a, Methyl 2-[2-(3-cyano-4,6-bis(3,4-dimethoxyphenyl)pyridin-2-yloxy)acetyl]hydrazinecarbodithioate] yielded a melting point of 151 to 153 °C. The IC50 in data set [1] stood at 9.01 ± 0.42 µM. The compound also came in with a concentration for half-maximal inhibition (IC50) in data set [2] of 11.2 ± 0.22 µM. The compound also had a 50% inhibitory concentration (IC50) in data set [3] of 30.1 ± 0.88 µM. The compound further came in with an IC50 in data set [4] of 23.2 ± 0.95 µM. The compound also had an IC50 in data set [5] of 11.2 ± 0.91 µM.
The compound `COc1ccc(-c2cc(-c3ccc(OC)c(OC)c3)c(C#N)c(OCC(=O)NNS(=O)(=O)c3ccccc3)n2)cc1OC` [Compound 10a, N'-[2-(3-cyano-4,6-bis(3,4-dimethoxyphenyl)pyridin-2-yloxy)acety]benzenesulfohydrazide] came in with a melting point of 120 to 122 °C. For the same compound, the IC50 in data set [1] came to 11.34 ± 0.02 µM. The same compound returned an IC50 in data set [2] of 13.4 ± 0.98 µM. This compound returned an IC50 in data set [3] of 26.8 ± 0.33 µM. In addition, the IC50 in data set [4] came to 21.8 ± 0.85 µM. Moreover, half-maximal inhibition in data set [5] (IC50) was put at 12.1 ± 1.26 µM.
With `COc1ccc(-c2cc(-c3ccc(OC)c(OC)c3)c(C#N)c(OCC(=O)N3N=C(C)CC3=O)n2)cc1OC` [Compound 12, 4,6-bis(3,4-Dimethoxyphenyl)-2-(2-(3-methyl-5-oxo-4,5-dihydro-1H-pyrazol-1-yl)-2-oxoethoxy)pyridine-3-carbonitrile], the melting point lay within 189 to 190 °C. Also, it took 20.3 ± 1.72 µM to reach half-maximal inhibition in data set [1] (IC50). The same compound returned an IC50 in data set [2] of over 50 µM. Moreover, in data set [3], the concentration for half-maximal inhibition (IC50) is over 50 µM. Moreover, inhibition in data set [4] was half-maximal at 40.4 ± 1.76 µM (IC50). In data set [5], this compound yielded an IC50 of over 50 µM.
For `CCSC(=S)NNC(=O)COc1nc(-c2ccc(OC)c(OC)c2)cc(-c2ccc(OC)c(OC)c2)c1C#N` [Compound 7b, Ethyl 2-[2-(3-cyano-4,6-bis(3,4-dimethoxyphenyl)pyridin-2-yloxy)acetyl]hydrazinecarbodithioate], the melting point is 144 to 146 °C. Also, the IC50 in data set [1] came to 12.3 ± 0.88 µM. Moreover, the midpoint of inhibition in data set [2], the IC50, lay at 18.1 ± 1.76 µM. Half-maximal inhibition in data set [3] (IC50) was put at 37.9 ± 1.25 µM. In addition, the IC50 in data set [4] turned out to be 9.1 ± 0.97 µM. Besides, half-maximal inhibition in data set [5] (IC50) required 15.2 ± 1.13 µM.
As for `COc1ccc(-c2cc(-c3ccc(OC)c(OC)c3)c(C#N)c(OCC(=O)NNC(=S)SCCN3CCCCC3)n2)cc1OC` [Compound 7d, 2-(Piperidin-1-yl)-ethyl-2-[2-(3-cyano-4,6-bis(3,4-dimethoxyphenyl)pyridin-2-yloxy)acetyl]hydrazinecarbo-dithioate], the melting point lay in the range of 160 to 162 °C. In addition, in data set [1], half-maximal inhibition (IC50) required 10.1 ± 0.98 µM. Further, in data set [2], the midpoint of inhibition, the IC50, lay at 14.3 ± 0.95 µM. In data set [3], this compound came in with an IC50 of 35.5 ± 1.03 µM. The same compound gave an IC50 in data set [4] of 11.2 ± 1.26 µM. This compound came in with an IC50 in data set [5] of 25 ± 1.33 µM.
Turning to `COC(=O)c1c(SC)nn(C(=O)COc2nc(-c3ccc(OC)c(OC)c3)cc(-c3ccc(OC)c(OC)c3)c2C#N)c1N` [Compound 13a, Methyl 5-amino-1-{[(3-cyano-4,6-bis(3,4-dimethoxyphenyl)pyridin-2-yl)oxy]acetyl}-3-(methylsulfanyl)-1H-pyrazole-4-carboxylate], the melting point lay within 184 to 186 °C. In data set [1], this compound returned an IC50 of over 50 µM. The same compound had an IC50 in data set [2] of over 50 µM. The compound further came in with an IC50 in data set [3] of over 50 µM. Also, in data set [4], the IC50 is 36.3 ± 1.71 µM. For the same compound, in data set [5], the IC50 was over 50 µM.

In general, IC50 refers to the concentration at which inhibition is half-maximal. The term melting point denotes the temperature, or range, at which the solid turns liquid.
